Drawing on patent publication US7262212B2, “2,3-dihydro-6-nitroimidazo[2,1-b]oxazoles” (Otsuka Pharmaceutical Co., Ltd., priority 2002, dated 2007), this text covers melting point for 51 compounds.

The term melting point denotes the temperature of the solid-liquid transition.

In turn, `C[C@]1(COC(=O)N2CCN(N=Cc3ccc(C(F)(F)F)cc3)CC2)Cn2cc([N+](=O)[O-])nc2O1` had a melting point of 176 to 178 °C.

The compound `C[C@]1(COC(=O)N2CCC(Nc3ccc(C(F)(F)F)cc3)CC2)Cn2cc([N+](=O)[O-])nc2O1` returned a melting point of 137 to 140 °C. In the case of `CC1(COc2ccc(N3CCN(c4ccc(C(F)(F)F)cc4)CC3)cc2)Cn2cc([N+](=O)[O-])nc2O1` (stereo not drawn) it was 230.7 to 233.1 °C. In the case of `CC1(COc2ccc(N3CCN(Cc4ccc(C(F)(F)F)cc4)CC3)cc2)Cn2cc([N+](=O)[O-])nc2O1` (stereo not drawn) it was 171.8 to 173.1 °C. The value for `C[C@]1(COc2ccc(OC(F)(F)F)cc2)Cn2cc([N+](=O)[O-])nc2O1` was 176.5 to 178 °C. Turning to `O=C(Oc1ccccc1)N1CCC2(CC1)Cn1cc([N+](=O)[O-])nc1O2`, the melting point fell in the range of 242 to 244 °C. `O=C(Nc1ccc(C(F)(F)F)cc1)N1CCC2(CC1)Cn1cc([N+](=O)[O-])nc1O2` gave a melting point of 215 to 217 °C. The value for `Cc1ccc(NC(=O)N2CCC3(CC2)Cn2cc([N+](=O)[O-])nc2O3)cc1` was over 300 °C; that for `C[C@]1(CN2CCC(N3CCN(Cc4ccc(Cl)cc4)CC3)CC2)Cn2cc([N+](=O)[O-])nc2O1` was 148 to 149 °C. The value for `CC(C)(C)OC(=O)N1CCN(C2CCN(C[C@@]3(C)Cn4cc([N+](=O)[O-])nc4O3)CC2)CC1` was 184 to 185 °C; that for `C[C@]1(CN2CCC(N3CCN(C(=O)OCc4ccc(OC(F)(F)F)cc4)CC3)CC2)Cn2cc([N+](=O)[O-])nc2O1` was 110 to 111 °C; that for `O=[N+]([O-])c1cn2c(n1)OC1(CCN(c3ccc(Cl)cc3)CC1)C2` was 242 to 245 °C. In the case of `O=[N+]([O-])c1cn2c(n1)O[C@@H](COc1ccc(N3CCC(Oc4ccc(OC(F)(F)F)cc4)CC3)cc1)C2` it was 157 to 160 °C; in that of `C[C@]1(COc2ccc(N3CCN(C(=O)OCc4cc5cc(Cl)ccc5o4)CC3)cc2)Cn2cc([N+](=O)[O-])nc2O1`, 195 to 197 °C. As to `C[C@]1(COc2ccc(C3=CCN(C(=O)OCc4ccc(OC(F)(F)F)cc4)CC3)cc2)Cn2cc([N+](=O)[O-])nc2O1`, the melting point was 174.3 to 174.8 °C. In the case of `CCOC(=O)N1CCN(C(=O)c2ccc(OC[C@@]3(C)Cn4cc([N+](=O)[O-])nc4O3)cc2)CC1` it was 132 to 135 °C; in that of `CN(CCOc1ccc(Cl)cc1)C[C@@]1(C)Cn2cc([N+](=O)[O-])nc2O1`, 130.5 to 132 °C; in that of `CN(Cc1ccc(N(C)C)cc1)C[C@@]1(C)Cn2cc([N+](=O)[O-])nc2O1`, 168 to 169 °C.

For the compound `CN(C[C@@]1(C)Cn2cc([N+](=O)[O-])nc2O1)c1ccc(Cl)cc1`, the melting point is 174 to 175 °C. Regarding `CN(CCN1CCN(Cc2ccc(C(F)(F)F)cc2)CC1)C[C@@]1(C)Cn2cc([N+](=O)[O-])nc2O1`, the melting point lay in the range of 102 to 104.5 °C. In the case of `CC1(CNC(=O)OCc2ccc(Cl)cc2)Cn2cc([N+](=O)[O-])nc2O1` (stereo not drawn) it was 221 to 221.8 °C; in that of `CNCC1(C)Cn2cc([N+](=O)[O-])nc2O1.O=C(O)C(F)(F)F` (stereo not drawn), 176.2 to 178.8 °C; in that of `CN(CC1(C)Cn2cc([N+](=O)[O-])nc2O1)C(=O)OCc1ccc(F)cc1` (stereo not drawn), 168.9 to 169.9 °C. For the compound `CN(CC1Cn2cc([N+](=O)[O-])nc2O1)C(=O)OCc1ccc(F)cc1` (stereo not drawn), the melting point lay within 124.5 to 128.1 °C. In the case of `CC1(CN2CCC(Oc3ccc(OC(F)(F)F)cc3)CC2)Cn2cc([N+](=O)[O-])nc2O1` (stereo not drawn) it was 117 to 119 °C; in that of `CC1(CN2CCC(Cc3ccc(Cl)cc3)CC2)Cn2cc([N+](=O)[O-])nc2O1` (stereo not drawn), 109 to 110.5 °C; in that of `C[C@]1(CN2CCC(OCc3ccc(Cl)c(Cl)c3)CC2)Cn2cc([N+](=O)[O-])nc2O1`, 132 to 136 °C. In the case of `C[C@]1(CN2CCC(OCCCc3ccc(Cl)cc3)CC2)Cn2cc([N+](=O)[O-])nc2O1` it was 88.8 to 91.9 °C; in that of `C[C@]1(CN2CCC(Nc3ccc(OC(F)(F)F)cc3)CC2)Cn2cc([N+](=O)[O-])nc2O1`, 107.5 to 109 °C. `C[C@]1(CN2CC=C(c3ccccc3)CC2)Cn2cc([N+](=O)[O-])nc2O1` yielded a melting point of 200.1 to 201 °C.

On to `CC1(CN2CCN(c3ccc(C(F)(F)F)cc3)CC2)Cn2cc([N+](=O)[O-])nc2O1` (stereo not drawn), for which the melting point lay within 159 to 160 °C.

Regarding `CC1(CCCN2CCN(Cc3ccc(-c4ccccc4)cc3)CC2)Cn2cc([N+](=O)[O-])nc2O1` (stereo not drawn), the melting point is 176 to 178 °C. The value for `CC1(CN2CCN(CCCn3c(=O)oc4ccccc43)CC2)Cn2cc([N+](=O)[O-])nc2O1` (stereo not drawn) was 123 to 126 °C.

`CC(C)OC(=O)N1CCN(CC2(C)Cn3cc([N+](=O)[O-])nc3O2)CC1` (stereo not drawn) displayed a melting point of 158.3 to 159.8 °C. For `CC(C)NC(=O)N1CCN(CC2(C)Cn3cc([N+](=O)[O-])nc3O2)CC1` (stereo not drawn), the melting point was 175 to 176.3 °C.

In turn, `CC1(CN2CCN(c3nc4ccccc4o3)CC2)Cn2cc([N+](=O)[O-])nc2O1` (stereo not drawn) came in with a melting point of 228 to 229.5 °C. The value for `O=[N+]([O-])c1cn2c(n1)O[C@@H](CN1CCN(c3ccc(C(F)(F)F)cc3)CC1)C2` was 175.8 to 176.6 °C; that for `O=[N+]([O-])c1cn2c(n1)O[C@@H](CN1CCN(Cc3ccc(C(F)(F)F)cc3)CC1)C2` was 149 to 150 °C; that for `CC1(CN2CCN(C(=O)c3ccc(Cl)cc3)CC2)Cn2cc([N+](=O)[O-])nc2O1` (stereo not drawn) was 150 to 155.2 °C. In the case of `C[C@]1(CN2CCN(C(=O)CCCCc3ccc(Cl)cc3)CC2)Cn2cc([N+](=O)[O-])nc2O1` it was 108 to 111 °C; in that of `C[C@]1(CN2CCN(S(=O)(=O)Cc3ccc(Cl)cc3)CC2)Cn2cc([N+](=O)[O-])nc2O1`, 204 to 206 °C; in that of `COc1ccc(NC(=O)N2CCN(CC3(C)Cn4cc([N+](=O)[O-])nc4O3)CC2)cc1` (stereo not drawn), 167 to 168 °C. The value for `CC1(CN2CCN(C(=O)Nc3cccc(C(F)(F)F)c3)CC2)Cn2cc([N+](=O)[O-])nc2O1` (stereo not drawn) was 183 to 184 °C. In turn, `CN(C(=O)N1CCN(C[C@@]2(C)Cn3cc([N+](=O)[O-])nc3O2)CC1)c1ccc(C(F)(F)F)cc1` registered a melting point of 100.4 to 102.4 °C. The value for `C[C@]1(CN2CCN(N=Cc3cc4cc(C(F)(F)F)ccc4o3)CC2)Cn2cc([N+](=O)[O-])nc2O1` was 190.2 to 191.8 °C; that for `Cn1c(=O)n(CC2(C)Cn3cc([N+](=O)[O-])nc3O2)c2ccccc21` (stereo not drawn) was 203.2 to 204.4 °C. `CC(C)n1c(=O)n(CC2(C)Cn3cc([N+](=O)[O-])nc3O2)c2cc(Cl)ccc21` (stereo not drawn): the melting point was in the range of 240.5 to 244.8 °C. In the case of `CC1(CN2CCN(Cc3ccc(Br)cc3)C2=O)Cn2cc([N+](=O)[O-])nc2O1` (stereo not drawn) it was 205.7 to 208.1 °C.

For the compound `CC1(CN2CCCN(C(=O)OCc3ccccc3)CC2)Cn2cc([N+](=O)[O-])nc2O1.Cl` (stereo not drawn), the melting point is 115 to 117 °C. As for `O=C(Nc1ccccc1)N1CCC2(CC1)Cn1cc([N+](=O)[O-])nc1O2`, the melting point is 229 to 232 °C (dec.).

With `CC(C)(C)OC(=O)N1CCN(C(=O)N2CCC3(CC2)Cn2cc([N+](=O)[O-])nc2O3)CC1`, the melting point is 260 to 265 °C (dec.).
